4 molecules from publication PMC11555526, “Development of 2-Aminoadenine-Based Proteolysis-Targeting Chimeras (PROTACs) as Novel Potent Degraders of Monopolar Spindle 1 and Aurora Kinases” (ACS Pharmacology & Translational Science, 2024) can be followed below.

In experiment [1] the target is T1, AURKB (MV4-11^AURKB-HiBiT cells) (Homo sapiens, UniProt Q96GD4).
T1 construct: expressed in transfected cells; host or cells: MV4-11, lentiviral transduction (pRRL-PGK vector)
Briefly: HiBiT assay, AURKB degradation. Particulars: 6 h treatment; for DC50: read-out: DC50 (half-maximal degradation concentration) AURKB. It counts as cell-based. The method, boiled down:
(§1)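 MV4-11 lines stably expressing HiBiT-tagged AURKA, AURKB or TTK (lentiviral) were treated with serial compound dilutions for the indicated times. Remaining tagged protein was read by lytic HiBiT luminescence, and DC50 was fitted with a four-parameter dose–response equation using concentrations showing sigmoidal behaviour.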
A general note: HiBiT is a short tag that completes a luciferase, so light tracks the accessible tagged protein.

A further experiment concerns MV4-11 cells (naive). Description: alamarBlue cell viability assay. Format: cell-based, human. Particulars: 72 h treatment, MV4-11 cells (naive); read-out: EC50 (concentration that decreases cell viability by 50%). The method, boiled down: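 Cells exposed to compound concentration series or vehicle for 72 h (unless otherwise stated); alamarBlue added a few hours before end point. Read-out by fluorescence (ex 550/em 600 nm) or absorbance (570 nm, 600 nm reference).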

The target in experiment [2] is T2, AURKA (MV4-11^AURKA-HiBiT cells) (Homo sapiens, UniProt O14965).
T2 construct: expressed in transfected cells; host or cells: MV4-11, lentiviral transduction
T2 sequence (O14965 1-403): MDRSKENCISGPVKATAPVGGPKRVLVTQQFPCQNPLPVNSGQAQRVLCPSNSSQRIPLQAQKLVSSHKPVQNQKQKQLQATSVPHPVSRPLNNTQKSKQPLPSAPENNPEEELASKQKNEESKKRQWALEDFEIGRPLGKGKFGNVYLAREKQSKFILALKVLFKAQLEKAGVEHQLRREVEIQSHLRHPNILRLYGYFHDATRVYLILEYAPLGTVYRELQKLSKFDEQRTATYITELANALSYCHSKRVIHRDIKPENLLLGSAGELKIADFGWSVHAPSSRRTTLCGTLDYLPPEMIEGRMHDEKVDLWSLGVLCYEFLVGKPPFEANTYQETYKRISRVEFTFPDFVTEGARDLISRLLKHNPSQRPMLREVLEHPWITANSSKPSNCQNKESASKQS
Briefly: HiBiT assay, AURKA degradation. Format: cell-based. The conditions noted are these: for Dmax (maximal degradation) AURKA / DC50: 6 h treatment, MV4-11^AURKA-HiBiT cells; for DC50: read-out: DC50 (half-maximal degradation concentration) AURKA. In short, it runs like this:
as §1

Experiment [3] deals with T3, TTK (MV4-11^HiBiT-TTK cells) (Homo sapiens, UniProt P33981).
T3 construct: expressed in transfected cells; host or cells: MV4-11, lentiviral transduction (pRRL-PGK-HiBiT entry vector)
T3 sequence (P33981 1-857): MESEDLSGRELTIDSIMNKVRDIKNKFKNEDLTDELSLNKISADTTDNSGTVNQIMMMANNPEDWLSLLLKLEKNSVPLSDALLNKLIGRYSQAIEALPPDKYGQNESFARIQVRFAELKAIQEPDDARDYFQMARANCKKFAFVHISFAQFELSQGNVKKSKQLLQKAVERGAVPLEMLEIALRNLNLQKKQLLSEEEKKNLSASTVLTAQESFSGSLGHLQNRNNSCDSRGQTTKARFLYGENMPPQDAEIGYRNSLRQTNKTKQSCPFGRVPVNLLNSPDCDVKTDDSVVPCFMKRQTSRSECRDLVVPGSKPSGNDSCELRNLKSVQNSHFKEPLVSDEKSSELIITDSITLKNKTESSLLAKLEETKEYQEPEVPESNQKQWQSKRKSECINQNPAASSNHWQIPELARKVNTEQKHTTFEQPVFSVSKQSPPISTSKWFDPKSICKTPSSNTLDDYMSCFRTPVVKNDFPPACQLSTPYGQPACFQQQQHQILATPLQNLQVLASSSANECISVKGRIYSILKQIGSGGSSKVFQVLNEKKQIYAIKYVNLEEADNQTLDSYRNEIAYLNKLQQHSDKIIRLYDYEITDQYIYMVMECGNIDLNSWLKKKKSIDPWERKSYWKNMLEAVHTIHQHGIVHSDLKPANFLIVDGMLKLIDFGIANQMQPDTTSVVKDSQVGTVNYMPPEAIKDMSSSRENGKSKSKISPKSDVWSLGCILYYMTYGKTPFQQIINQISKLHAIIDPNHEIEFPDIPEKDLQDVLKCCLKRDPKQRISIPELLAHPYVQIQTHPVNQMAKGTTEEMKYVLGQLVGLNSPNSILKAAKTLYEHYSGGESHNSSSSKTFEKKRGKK
Briefly: HiBiT assay, TTK degradation. Particulars: 6 h treatment, MV4-11^HiBiT-TTK cells; for DC50: read-out: DC50 (half-maximal degradation concentration) TTK. Format: cell-based. The arrangement: key to Dmax (maximal degradation) TTK: compounds with degradation less than 15% reported as “inactive”. In short, it runs like this: as §1

Several values for one entry are separate records, joined by “and”; a condition that tells them apart may be missing. Equal entries are not always repeated.

T1 sequence (Q96GD4 1-345 isoform Q96GD4-5): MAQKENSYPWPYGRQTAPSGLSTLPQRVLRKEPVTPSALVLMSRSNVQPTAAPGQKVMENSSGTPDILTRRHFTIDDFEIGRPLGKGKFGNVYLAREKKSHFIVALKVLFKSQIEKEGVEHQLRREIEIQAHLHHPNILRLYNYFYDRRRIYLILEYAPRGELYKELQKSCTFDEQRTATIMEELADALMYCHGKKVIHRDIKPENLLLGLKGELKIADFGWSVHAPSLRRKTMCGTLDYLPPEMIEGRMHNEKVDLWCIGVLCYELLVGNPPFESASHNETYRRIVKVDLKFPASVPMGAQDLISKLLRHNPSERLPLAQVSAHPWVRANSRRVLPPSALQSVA

With `CC(C)S(=O)(=O)c1ccccc1Nc1nc(Nc2ccc(N3CCN(C(=O)CCCC(=O)Nc4cccc5c4C(=O)N(C4CCC(=O)NC4=O)C5=O)CC3)cc2)nc2[nH]cnc12` (stereo not drawn) [Compound 14], in experiment [1], the “Dmax (maximal degradation) AURKB” value was 38.80% and the DC50 amounted to 168 nM. Moreover, the EC50 in the experiment on MV4-11 cells (naive) came to 214 nM. Further, in experiment [2], the “Dmax (maximal degradation) AURKA” value is reported as 50.10% and the DC50 was determined as 46 nM. For the same molecule, in experiment [3], the “Dmax (maximal degradation) TTK” value is 28.50% and the DC50 was found to be 396 nM.

In the case of `CC(C)S(=O)(=O)c1ccccc1Nc1nc(Nc2ccc(N3CCN(C(=O)CNC(=O)CCCC(=O)Nc4cccc5c4C(=O)N(C4CCC(=O)NC4=O)C5=O)CC3)cc2)nc2[nH]cnc12` (stereo not drawn) [Compound 20], in experiment [1], the “Dmax (maximal degradation) AURKB” value came out at 29.40% and the DC50 is 248 nM. Besides, the EC50 in the experiment on MV4-11 cells (naive) is 577 nM. Besides, in experiment [2], the “Dmax (maximal degradation) AURKA” value is 71% and 70.70%; the DC50 was 68 nM and 67.7 nM. Also, in experiment [2] (HiBiT, 6 h), the “efficiency of AURKA degradation (Dmax) relative to AURKB and TTK” value is on record as 1.5–2.4 times; the “selectivity of AURKA degradation (DC50) relative to AURKB and TTK” value is recorded as 3.7–4.2 fold. Further, in experiment [3], the “Dmax (maximal degradation) TTK” value is 48.33% and the DC50 amounted to 281 nM.

Turning to `Cc1ncsc1-c1ccc(CNC(=O)[C@@H]2C[C@@H](O)CN2C(=O)[C@@H](NC(=O)CCCC(=O)N2CCN(c3ccc(Nc4nc(Nc5ccccc5S(=O)(=O)C(C)C)c5nc[nH]c5n4)cc3)CC2)C(C)(C)C)cc1` [Compound 44], in experiment [1], the “DC50 (half-maximal degradation concentration) AURKB” value was “– (compounds with degradation less than 25% were not calculated and reported as “–”)”; the “Dmax (maximal degradation) AURKB” value came to 20.30%. For the same molecule, the EC50 in the experiment with MV4-11 cells (naive) is 1160 nM. In experiment [2], the “Dmax (maximal degradation) AURKA” value came out at 35.20% and the DC50 came to 1700 nM. In experiment [3], the “DC50 (half-maximal degradation concentration) TTK” value is “– (compounds with degradation less than 25% were not calculated and reported as “–”)”; the “Dmax (maximal degradation) TTK” value was “inactive”.

With `Cc1ncsc1-c1ccc(CNC(=O)[C@@H]2C[C@@H](O)CN2C(=O)[C@@H](NC(=O)COCCOCC(=O)N2CCN(c3ccc(Nc4nc(Nc5ccccc5S(=O)(=O)C(C)C)c5nc[nH]c5n4)cc3)CC2)C(C)(C)C)cc1` [Compound 49], in experiment [1], the “Dmax (maximal degradation) AURKB” value amounted to 32.17% and the DC50 was 3690 nM. For the same molecule, the EC50 in the experiment with MV4-11 cells (naive) is 2560 nM. For the same molecule, in experiment [2], the “Dmax (maximal degradation) AURKA” value came out at 38.00% and the DC50 was found to be 814 nM. In addition, in experiment [3], the “Dmax (maximal degradation) TTK” value worked out at 47.40% and the DC50 was 5710 nM.
